Data reported in ChEMBL document CHEMBL1156502, “Stabilized immune modulatory RNA compounds as agonists of Toll-like receptors 7 and 8” (Proc Natl Acad Sci U S A, 2007).
Active and inactive are the calls of the source. The rule behind the calls is not given here.

Assays:
Mus musculus [1] = experiment: Induction of IL12 secretion in sc dosed C57BL/6 mouse serum after 2 hrs by ELISA; type: functional, organism-based
Mus musculus [2] = experiment: Induction of chemokine secretion in C57BL/6 mouse plasma at 100 mg/kg, sc by Luminex Multiplex assay; type: functional, organism-based; parameters: dose 100 mg/kg
Mus musculus [3] = experiment: Induction of cytokine secretion in C57BL/6 mouse plasma at 100 mg/kg, sc by Luminex Multiplex assay; type: functional, organism-based; parameters: dose 100 mg/kg
PBMC [4] = experiment: Induction of IL2R secretion in human PBMC after 24 hrs by Luminex Multiplex assay; type: functional, cell-based
PBMC [5] = experiment: Induction of IFN-gamma secretion in human PBMC after 24 hrs by Luminex Multiplex assay; type: functional, cell-based
[6] = Stability in 1% human serum assessed as full length product after 10 mins; type: ADME, cell-free; conditions: read-out: Stability
PBMC [7] = experiment: Induction of IL12 secretion in human PBMC after 24 hrs by Luminex Multiplex assay; type: functional, cell-based
PBMC [8] = experiment: Induction of IL10 secretion in human PBMC after 24 hrs by Luminex Multiplex assay; type: functional, cell-based
PBMC [9] = experiment: Induction of IL1-beta secretion in human PBMC after 24 hrs by Luminex Multiplex assay; type: functional, cell-based
PBMC [10] = experiment: Induction of IFNalpha secretion in human PBMC after 24 hrs by Luminex Multiplex assay; type: functional, cell-based
[11] = biological target: T1, Toll-like receptor 7 (Homo sapiens) (UniProt Q9NYK1); experiment: Activation of human TLR7 expressed in HEK293 cells assessed as increase in NF-kappaB activation at 100 ug/ml by SEAP assay; type: cell-based
T1 sequence (whole entry): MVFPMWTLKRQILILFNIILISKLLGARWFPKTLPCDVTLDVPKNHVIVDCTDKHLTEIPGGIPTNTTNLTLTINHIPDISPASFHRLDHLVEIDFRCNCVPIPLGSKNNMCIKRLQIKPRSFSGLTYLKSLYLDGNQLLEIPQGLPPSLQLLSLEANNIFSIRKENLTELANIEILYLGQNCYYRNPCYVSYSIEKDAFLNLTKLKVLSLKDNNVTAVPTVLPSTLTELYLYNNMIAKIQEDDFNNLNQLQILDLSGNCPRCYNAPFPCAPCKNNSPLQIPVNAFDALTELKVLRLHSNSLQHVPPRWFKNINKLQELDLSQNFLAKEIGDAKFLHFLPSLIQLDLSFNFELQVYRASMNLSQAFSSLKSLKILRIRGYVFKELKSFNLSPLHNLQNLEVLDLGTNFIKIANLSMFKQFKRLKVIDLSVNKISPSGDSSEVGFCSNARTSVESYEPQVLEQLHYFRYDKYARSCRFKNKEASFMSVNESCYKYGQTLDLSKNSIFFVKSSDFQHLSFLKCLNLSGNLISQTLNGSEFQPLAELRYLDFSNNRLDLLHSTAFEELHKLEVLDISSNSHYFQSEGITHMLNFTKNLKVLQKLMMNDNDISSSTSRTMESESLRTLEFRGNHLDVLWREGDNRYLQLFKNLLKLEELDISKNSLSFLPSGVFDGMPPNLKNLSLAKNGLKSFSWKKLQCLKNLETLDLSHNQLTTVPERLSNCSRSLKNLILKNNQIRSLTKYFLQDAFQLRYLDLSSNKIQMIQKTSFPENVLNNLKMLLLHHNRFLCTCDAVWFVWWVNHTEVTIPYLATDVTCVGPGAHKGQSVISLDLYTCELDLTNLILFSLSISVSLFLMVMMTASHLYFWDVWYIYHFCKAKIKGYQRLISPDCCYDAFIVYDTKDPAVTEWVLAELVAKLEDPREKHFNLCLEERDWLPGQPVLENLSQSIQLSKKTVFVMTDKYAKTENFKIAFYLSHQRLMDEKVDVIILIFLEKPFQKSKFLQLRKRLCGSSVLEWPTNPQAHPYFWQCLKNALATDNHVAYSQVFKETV

[12] = biological target: T2, Toll-like receptor 8 (Homo sapiens) (UniProt Q9NR97); experiment: Activation of human TLR8 expressed in HEK293 cells assessed as increase in NF-kappaB activation at 100 ug/ml by SEAP assay; type: cell-based
T2 sequence (whole entry): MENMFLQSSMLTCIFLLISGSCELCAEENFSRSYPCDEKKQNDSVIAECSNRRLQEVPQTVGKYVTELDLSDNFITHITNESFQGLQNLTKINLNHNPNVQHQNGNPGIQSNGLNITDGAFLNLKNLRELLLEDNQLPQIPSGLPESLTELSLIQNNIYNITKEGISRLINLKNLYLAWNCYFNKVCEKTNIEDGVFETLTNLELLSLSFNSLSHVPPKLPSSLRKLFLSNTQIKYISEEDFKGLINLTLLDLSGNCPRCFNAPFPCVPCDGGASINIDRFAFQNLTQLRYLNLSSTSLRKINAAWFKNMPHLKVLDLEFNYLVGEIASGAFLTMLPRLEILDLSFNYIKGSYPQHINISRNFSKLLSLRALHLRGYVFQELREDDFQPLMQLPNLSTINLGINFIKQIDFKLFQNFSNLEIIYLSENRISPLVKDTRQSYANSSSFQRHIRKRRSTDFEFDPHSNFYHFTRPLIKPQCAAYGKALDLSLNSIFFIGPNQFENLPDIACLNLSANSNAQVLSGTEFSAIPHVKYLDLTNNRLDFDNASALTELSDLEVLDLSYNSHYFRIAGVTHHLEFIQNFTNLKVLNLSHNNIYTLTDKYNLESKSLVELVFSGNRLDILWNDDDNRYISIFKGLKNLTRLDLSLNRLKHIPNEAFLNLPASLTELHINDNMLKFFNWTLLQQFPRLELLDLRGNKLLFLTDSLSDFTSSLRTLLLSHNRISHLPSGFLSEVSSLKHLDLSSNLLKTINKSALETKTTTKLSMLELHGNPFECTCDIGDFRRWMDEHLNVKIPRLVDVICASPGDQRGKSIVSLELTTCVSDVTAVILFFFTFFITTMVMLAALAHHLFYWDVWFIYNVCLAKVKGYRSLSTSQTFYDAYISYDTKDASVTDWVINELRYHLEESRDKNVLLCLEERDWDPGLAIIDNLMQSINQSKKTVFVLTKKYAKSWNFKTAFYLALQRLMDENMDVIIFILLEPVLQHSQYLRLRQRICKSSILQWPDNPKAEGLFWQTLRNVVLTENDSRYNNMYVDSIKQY

Dendritic cell = experiment: Induction of IFNalpha secretion in human plasmacytoid dendritic cells at 200 ug/ml after 24 hrs by Luminex Multiplex assay; type: functional
spleen [13] = experiment: Induction of chemokine secretion in C57BL/6 mouse spleen cells 100 ug/ml after 24 hrs by Luminex Multiplex assay; type: functional, cell-based
spleen [14] = experiment: Induction of cytokine secretion in C57BL/6 mouse spleen cells at 100 ug/ml after 24 hrs by Luminex Multiplex assay; type: functional, cell-based

| SMILES | Activity (Mus musculus [1]) | Activity (Mus musculus [2]) | Activity (Mus musculus [3]) | Activity (PBMC [4]) | Activity (PBMC [5]) | remaining at 10 min [6] | Activity (PBMC [7]) | Activity (PBMC [8]) | Activity (PBMC [9]) | Activity (PBMC [10]) | Activity [11] | Activity [12] | Activity (Dendritic cell) | Activity (spleen [13]) | Activity (spleen [14]) |
| --- | --- | --- | --- | --- | --- | --- | --- | --- | --- | --- | --- | --- | --- | --- | --- |
| Nc1ccn([C@@H]2O[C@H](COP(O)(=S)O[C@H]3[C@@H](O)[C@H](n4cnc5c(=O)[nH]c(N)nc54)O[C@@H]3COP(O)(=S)O[C@H]3[C@@H](O)[C@H](n4ccc(=O)[nH]c4=O)O[C@@H]3CO)[C@@H](OP(O)(=S)OC[C@H]3O[C@@H](n4ccc(=O)[nH]c4=O)[C@H](O)[C@@H]3OP(O)(=S)OC[C@H]3O[C@@H](n4cnc5c(=O)[nH]c(N)nc54)[C@H](O)[C@@H]3OP(O)(=S)OC[C@H]3O[C@@H](n4ccc(N)nc4=O)[C@H](O)[C@@H]3OP(O)(=S)OC[C@H]3O[C@@H](n4ccc(=O)[nH]c4=O)[C@H](O)[C@@H]3OP(O)(=S)OC[C@H]3O[C@@H](n4ccc(=O)[nH]c4=O)[C@H](O)[C@@H]3OP(O)(=S)OC[C@H]3O[C@@H](n4cnc5c(=O)[nH]c(N)nc54)[C@H](O)[C@@H]3OP(O)(=S)OC[C@H]3O[C@@H](n4ccc(=O)[nH]c4=O)[C@H](O)[C@@H]3OP(O)(=S)OC[C@H]3O[C@@H](n4cnc5c(=O)[nH]c(N)nc54)[C@H](O)[C@@H]3OP(O)(=S)OCC(O)COP(O)(=S)O[C@H]3[C@@H](O)[C@H](n4cnc5c(=O)[nH]c(N)nc54)O[C@@H]3COP(O)(=S)O[C@H]3[C@@H](O)[C@H](n4ccc(=O)[nH]c4=O)O[C@@H]3COP(O)(=S)O[C@H]3[C@@H](O)[C@H](n4cnc5c(=O)[nH]c(N)nc54)O[C@@H]3COP(O)(=S)O[C@H]3[C@@H](O)[C@H](n4ccc(=O)[nH]c4=O)O[C@@H]3COP(O)(=S)O[C@H]3[C@@H](O)[C@H](n4ccc(=O)[nH]c4=O)O[C@@H]3COP(O)(=S)O[C@H]3[C@@H](O)[C@H](n4ccc(N)nc4=O)O[C@@H]3COP(O)(=S)O[C@H]3[C@@H](O)[C@H](n4cnc5c(=O)[nH]c(N)nc54)O[C@@H]3COP(O)(=S)O[C@H]3[C@@H](O)[C@H](n4ccc(=O)[nH]c4=O)O[C@@H]3COP(O)(=S)O[C@H]3[C@@H](O)[C@H](n4ccc(N)nc4=O)O[C@@H]3COP(O)(=S)O[C@H]3[C@@H](O)[C@H](n4cnc5c(=O)[nH]c(N)nc54)O[C@@H]3COP(O)(=S)O[C@H]3[C@@H](O)[C@H](n4ccc(=O)[nH]c4=O)O[C@@H]3CO)[C@H]2O)c(=O)n1 (some centres not stated) | inactive | inactive | inactive | Dose-dependent effect | Dose-dependent effect | 74% | Dose-dependent effect | Dose-dependent effect | Dose-dependent effect | Dose-dependent effect | inactive | Active |  |  |  |
| Nc1ccn([C@@H]2O[C@H](COP(O)(=S)O[C@H]3[C@@H](O)[C@H](n4ccc(=O)[nH]c4=O)O[C@@H]3COP(O)(=S)O[C@H]3[C@@H](O)[C@H](n4ccc(=O)[nH]c4=O)O[C@@H]3COP(O)(=S)O[C@H]3[C@@H](O)[C@H](n4ccc(N)nc4=O)O[C@@H]3COP(O)(=S)O[C@H]3[C@@H](O)[C@H](n4ccc5c(=O)[nH]c(N)nc54)O[C@@H]3COP(O)(=S)O[C@H]3[C@@H](O)[C@H](n4ccc(=O)[nH]c4=O)O[C@@H]3COP(O)(=S)O[C@H]3[C@@H](O)[C@H](n4ccc(N)nc4=O)O[C@@H]3COP(O)(=S)O[C@H]3[C@@H](O)[C@H](n4ccc5c(=O)[nH]c(N)nc54)O[C@@H]3COP(O)(=S)O[C@H]3[C@@H](O)[C@H](n4ccc(=O)[nH]c4=O)O[C@@H]3CO)[C@@H](OP(O)(=S)OC[C@H]3O[C@@H](n4ccc(=O)[nH]c4=O)[C@H](O)[C@@H]3OP(O)(=S)OC[C@H]3O[C@@H](n4ccc5c(=O)[nH]c(N)nc54)[C@H](O)[C@@H]3OP(O)(=S)OCCC(O)CCOP(O)(=S)O[C@H]3[C@@H](O)[C@H](n4ccc5c(=O)[nH]c(N)nc54)O[C@@H]3COP(O)(=S)O[C@H]3[C@@H](O)[C@H](n4ccc(=O)[nH]c4=O)O[C@@H]3COP(O)(=S)O[C@H]3[C@@H](O)[C@H](n4ccc(N)nc4=O)O[C@@H]3COP(O)(=S)O[C@H]3[C@@H](O)[C@H](n4ccc(=O)[nH]c4=O)O[C@@H]3COP(O)(=S)O[C@H]3[C@@H](O)[C@H](n4ccc(=O)[nH]c4=O)O[C@@H]3COP(O)(=S)O[C@H]3[C@@H](O)[C@H](n4ccc(N)nc4=O)O[C@@H]3COP(O)(=S)O[C@H]3[C@@H](O)[C@H](n4ccc5c(=O)[nH]c(N)nc54)O[C@@H]3COP(O)(=S)O[C@H]3[C@@H](O)[C@H](n4ccc(=O)[nH]c4=O)O[C@@H]3COP(O)(=S)O[C@H]3[C@@H](O)[C@H](n4ccc(N)nc4=O)O[C@@H]3COP(O)(=S)O[C@H]3[C@@H](O)[C@H](n4ccc5c(=O)[nH]c(N)nc54)O[C@@H]3COP(O)(=S)O[C@H]3[C@@H](O)[C@H](n4ccc(=O)[nH]c4=O)O[C@@H]3CO)[C@H]2O)c(=O)n1 (some centres not stated) |  |  |  |  |  |  |  |  |  |  | Active | Active | Active | Dose-dependent effect | Dose-dependent effect |
